Test results published in PMC5590075, “Synthesis, Antimicrobial, and Antioxidant Activities of Chalcogen-Containing Nitrone Derivatives from (R)-citronellal” (Medicines, 2017).
≈ marks a conversion by molar mass, not a printed value. Where two headings read alike, the source gives them in different places.

Experiments:
[1] = biological target: T1, δ-ALA-D (Mus musculus, UniProt P10518); assay: δ-ALA-D activity in tissue supernatants (in vitro toxicity); conditions: mean ± SD (n = 3)
T1 sequence (P10518 1-330): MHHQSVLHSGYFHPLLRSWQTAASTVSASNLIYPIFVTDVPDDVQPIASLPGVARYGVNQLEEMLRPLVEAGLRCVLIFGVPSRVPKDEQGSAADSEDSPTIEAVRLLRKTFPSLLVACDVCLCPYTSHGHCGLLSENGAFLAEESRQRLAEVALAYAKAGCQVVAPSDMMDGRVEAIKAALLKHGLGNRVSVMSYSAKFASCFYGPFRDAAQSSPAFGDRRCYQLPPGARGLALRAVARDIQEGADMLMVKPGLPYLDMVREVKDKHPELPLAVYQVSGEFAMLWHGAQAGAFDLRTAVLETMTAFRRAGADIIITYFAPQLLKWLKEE

[2] = DPPH radical scavenging; conditions: for DPPH radical scavenging activity (in words): 10–500 μM tested; for DPPH radical scavenging, percentage of inhibition in relation to control: mean ± SD (n = 3)
Experimental: The antioxidant properties of the synthesized compounds (5a–d and 10) were evaluated by three different methods in vitro: DPPH (1,1-diphenyl-2-picryl-hydrazyl) and ABTS^+ (2,2′-azino-bis(3-ethylbenzthiazoline-6-sulfonic acid) radical scavenging ability and ferric ion reducing antioxidant power (FRAP). All drugs were dissolved in dimethyl sulfoxide (DMSO) at concentrations of 1–500 µM. These assays were performed according to the literature and details of these experiments are described elsewhere (see the ‘Results and Discussion’ section for the references). […]
2.3. Antioxidant activity assays
The antioxidant properties of the synthesized compounds were evaluated by three different methods in vitro: DPPH and ABTS+ radical scavenging activity and ferric ion reducing antioxidant power (FRAP). All drugs were dissolved in dimethyl sulfoxide (DMSO). The experimental results were given as the means ± standard deviation (SD) to show the variations among the groups. The statistical analysis was performed using one‐way analysis of variance (ANOVA) followed by Newman‐Keuls multiple comparison test when appropriate. The differences were considered statistically significant at a probability of less than 5% (p < 0.05). All tests were performed at least three times in duplicate. The IC50 values (the concentration of sample required to scavenge 50% of the free radicals) were calculated from the graph of the scavenging effect percentage versus the […]
2.4. Radical Scavenging Activity
To determine if compounds 5a–d and 10 present in vitro antioxidant activity against free radicals, DPPH and ABTS+ scavenging capability were evaluated at different concentrations.
The DPPH scavenging activity of compounds 5a–d and 10 (10–500 μM) was determined in accordance with the method of Sharma and Bhat and the decrease in the absorbance at 517 nm […]
The ABTS radical scavenging activity was determined according to the method described by Erel. Different concentrations of compounds 5a–d and 10 (10–500 μ M) were mixed with the ABTS+ solution, and the decrease in the absorbance at 734 nm was recorded. […]
(§1) values, as calculated by the following equation:
I% = [(Ac−As/Ac) × 100] (1) […]

[3] = system: Staphylococcus aureus ATCC 25923; assay: MIC and MBC, macro dilution tube method; assay type: cell-based; conditions: S. mureus (so in the source); for MIC: 10^5 CFU.mL^−1, 24 h; for MBC: 10^5 CFU.mL^−1
From the text: (§2) To evaluate the antimicrobial potential of the synthesized compounds, the following reference strains of bacteria, that are economically important in foods, were employed: Gram-positive Listeria monocytogenes ATCC 7644, Staphylococcus aureus ATCC 25923, and Bacillus cereus ATCC 11778; Gram-negative Salmonella Typhimurium ATCC 14028, Escherichia coli O157: H7 NCTC 12900 and the clinically important Pseudomonas aeruginosa ATCC 15442.
(§3) The antimicrobial activity assay using the disk diffusion test was realized using the methodology that is recommended by the Clinical Laboratory Standards Institute (CLSI). The determination of the minimum inhibitory concentration (MIC) and minimum bactericidal concentration (MBC) was performed using the macro dilution tube method, in accordance with Rota et al., with modifications. Details of these assays are provided in the Supplemental Material. […]
(§4) 2.2. Determination of the minimum inhibitory concentration (MIC) and minimum bactericidal concentration
(§5) The MIC was determined using the macro dilution tube method, in accordance with Rota et al.
(§6) [5], with modifications. The tested concentrations were 20, 18, 15, 12, 10, 7 and 5 μL.mL‐1 of each compound. In a tube with 1 mL of MH broth, was inoculated 105 UFC.mL‐1, the compound in a predetermined concentration and, to facilitate the solubility, 2 drops of TWEEN 80. The mixture was incubated at 37 °C for 24 h under stirring (150 rpm). As the positive control, MH broth and inoculum concentration in 105 UFC.mL‐1 and as the negative control MH, the inoculum concentration in 105 UFC∙mL‐1 and streptomycin (10 μg) were used. MIC was defined as the lowest concentration of […]
(§7) After 24 h, tubes with no visible growth were seeded in a […] TSA‐YE tube and incubated at 37 °C for 24 h. The MBC is the lowest concentration of compound where 99.9% of the initially inoculated cells were killed. […]
(§8) 2.4. Radical Scavenging Activity […]
(§9) The ABTS radical scavenging activity was determined according to the method described by Erel. Different concentrations of compounds 5a–d and 10 (10–500 μ M) were mixed with the ABTS+ solution, and the decrease in the absorbance at 734 nm was recorded.

[4] = system: Escherichia coli O157: H7 NCTC 12900; assay: MIC and MBC, macro dilution tube method; assay type: cell-based; conditions: for MIC: E. coli O157:H7, 10^5 CFU.mL^−1, 24 h
From the text: as §2, §3, §4, §5, §6, §7, §8, §9

[5] = system: Listeria monocytogenes ATCC 7644; assay: MIC and MBC, macro dilution tube method; assay type: cell-based; conditions: L. monocytogenes
From the text: as §2, §3, §4, §5, §6, §7, §8, §9

[6] = Ferric ion reducing antioxidant power (FRAP); conditions: mean ± SD (n = 3)
Experimental: The antioxidant properties of the synthesized compounds (5a–d and 10) were evaluated by three different methods in vitro: DPPH (1,1-diphenyl-2-picryl-hydrazyl) and ABTS^+ (2,2′-azino-bis(3-ethylbenzthiazoline-6-sulfonic acid) radical scavenging ability and ferric ion reducing antioxidant power (FRAP). All drugs were dissolved in dimethyl sulfoxide (DMSO) at concentrations of 1–500 µM. These assays were performed according to the literature and details of these experiments are described elsewhere (see the ‘Results and Discussion’ section for the references).
as §1
I% = [(Ac−As/Ac) × 100] (1)
3. Ferric ion reducing antioxidant power (FRAP)
reducing capacity of compounds 5a–d and 10.
[8] with slight modifications. […]

[7] = E. coli O157:H7, 10^5 CFU.mL^−1

| SMILES | δ-ALA-D activity ([1]; Brain, 10 μM) [nmol PBG.mg.tn‐1.h‐1] | δ-ALA-D activity ([1]; Brain, 50 μM) [nmol PBG.mg.tn‐1.h‐1] | δ-ALA-D activity ([1]; Brain, 100 μM) [nmol PBG.mg.tn‐1.h‐1] | δ-ALA-D activity ([1]; Brain, 500 μM) [nmol PBG.mg.tn‐1.h‐1] | δ-ALA-D activity ([1]; Kidney, 10 μM) [nmol PBG.mg.tn‐1.h‐1] | δ-ALA-D activity ([1]; Kidney, 50 μM) [nmol PBG.mg.tn‐1.h‐1] | δ-ALA-D activity ([1]; Kidney, 100 μM) [nmol PBG.mg.tn‐1.h‐1] | δ-ALA-D activity ([1]; Kidney, 500 μM) [nmol PBG.mg.tn‐1.h‐1] | δ-ALA-D activity ([1]; Liver, 10 μM) [nmol PBG.mg.tn‐1.h‐1] | δ-ALA-D activity ([1]; Liver, 50 μM) [nmol PBG.mg.tn‐1.h‐1] | δ-ALA-D activity ([1]; Liver, 100 μM) [nmol PBG.mg.tn‐1.h‐1] | δ-ALA-D activity ([1]; Liver, 500 μM) [nmol PBG.mg.tn‐1.h‐1] | DPPH radical scavenging activity (in words) [2] | MIC [3] [mM.mL^−1] | MBC [4, 7] [mM.mL^−1] | MIC [4] [mM.mL^−1] | Ferric ion reducing antioxidant power (FRAP), absorbance at 593 nm ([6]; 5 μM) | Ferric ion reducing antioxidant power (FRAP), absorbance at 593 nm ([6]; 10 μM) | Ferric ion reducing antioxidant power (FRAP), absorbance at 593 nm ([6]; 50 μM) | DPPH radical scavenging, percentage of inhibition in relation to control ([2]; 100 μM) [%] | other results |
| --- | --- | --- | --- | --- | --- | --- | --- | --- | --- | --- | --- | --- | --- | --- | --- | --- | --- | --- | --- | --- | --- |
| CC(C)=CCCC(C)C/C=[N+](\C)[O-] (centres unmarked) [5d, (E)-N,3,7-trimethyloct-6-en-1-imine oxide] | 0.29 ± 0.09 | 0.27 ± 0.10 | 0.26 ± 0.09 | 0.24 ± 0.08 | 1.02 ± 0.11 | 0.96 ± 0.12 | 0.89 ± 0.12 | 0.72 ± 0.07 | 4.50 ± 0.60 | 4.22 ± 0.78 | 3.54 ± 0.84 | 2.84 ± 0.57 | did not present effect | 1.26 | 1.26 | 1.13 | 0.280 ± 0.022 | 0.412 ± 0.055 | 1.198 ± 0.024 | – | MIC ([5]; 10^5 CFU.mL^−1, 24 h): 1.26 mM.mL^−1; Ferric ion reducing antioxidant power (FRAP), absorbance at 593 nm ([6]; 1 μM): 0.166 ± 0.008 |
| CC(C)=CCCC(C)(C/C=[N+](\C)[O-])Sc1ccccc1 (centres unmarked) [5c, (E)-N,3,7-trimethyl-3-(phenylthio)oct-6-en-1-imine oxide] | 0.30 ± 0.10 | 0.28 ± 0.09 | 0.26 ± 0.08 | 0.26 ± 0.07 | 1.10 ± 0.12 | 1.02 ± 0.12 | 0.99 ± 0.10 | 0.90 ± 0.07 | 4.63 ± 0.82 | 4.31 ± 0.81 | 4.12 ± 0.90 | 3.88 ± 0.87 | demonstrated DPPH radical scavenging activity | 0.61 | 0.52 | 0.52 | – | 0.153 ± 0.047 | 0.543 ± 0.047 | 2.43 ± 0.61 | DPPH radical scavenging, percentage of inhibition in relation to control ([2]; 500 μM): 29.34 ± 1.00 %; MBC [3]: 0.69 mM.mL^−1; MBC ([4]; Escherichia coli, NCTC12900, read-out: minimal bactericidal concentration (MBC)): 520 µM (≈ 152 µg/mL); MBC ([5]; 10^5 CFU.mL^−1): >0.69 mM.mL^−1; Ferric ion reducing antioxidant power (FRAP), absorbance at 593 nm ([6]; 100 μM): 1.121 ± 0.160 |
| CC(C)=CCCC(C)C(/C=[N+](\C)[O-])Sc1ccccc1 (centres unmarked) [5a, (E)-N,3,7-Trimethyl-2-(phenylthio)oct-6-en-1-imine oxide] | 0.44 ± 0.09 | 0.42 ± 0.10 | 0.40 ± 0.11 | 0.36 ± 0.10 | 1.17 ± 0.05 | 1.17 ± 0.07 | 1.09 ± 0.08 | 0.90 ± 0.08 | 4.99 ± 0.84 | 4.87 ± 0.67 | 4.71 ± 0.89 | 4.46 ± 0.80 | demonstrated DPPH radical scavenging activity | >0.65 | >0.65 | >0.65 | 0.165 ± 0.007 | 0.207 ± 0.019 | 0.572 ± 0.023 | 2.43 ± 1.08 | DPPH radical scavenging, percentage of inhibition in relation to control ([2]; 500 μM): 20.31 ± 1.26 %; MBC [3]: >0.65 mM.mL^−1; Ferric ion reducing antioxidant power (FRAP), absorbance at 593 nm ([6]; 100 μM): 1.039 ± 0.067 |
